From patent publication US20230398118A1, “METHODS OF TREATING CARDIOVASCULAR-RELATED DISEASE” (Keros Therapeutics, Inc., priority 2020, published 2023)

Tests used:
Assay type in all cases: in vivo, human
[1] = system: healthy male volunteers and healthy postmenopausal female volunteers; test: Phase 1 safety and tolerability, single and multiple ascending oral doses
Excerpt: A total of 131 healthy, males aged 18 to 60 years and post-menopausal females aged 45 to 60 years, participated in this study.
(§1) The primary objectives of this study were to a) evaluate safety and tolerability of escalating doses of the compound of Formula I-11 administered as single and multiple oral doses in healthy male volunteers and healthy postmenopausal female volunteers and b) evaluate the PK parameters following escalating doses of the compound of Formula I-11 administered as single and multiple oral doses. The […] secondary objective of this study was to evaluate the pharmacodynamic (PD) parameters following escalating doses of the compound of Formula I-11 administered as single and multiple oral doses. This study was conducted in two parts.
Part 1 included 80 participants (10 cohorts of 8 participants each). Male and female participants who met the eligibility criteria were randomly assigned, in a ratio of 3:1 to receive the compound of Formula I-11 or matching placebo, N=6 and 2 per dose cohort, respectively. Participant enrollment included […] males and 12.5% females (postmenopausal). The IMP formulation used in Cohorts 1 through 6 was an oral capsule (doses of 1, 3, 10, 30, 100, or 300 mg capsule formulation). An oral liquid formulation was evaluated in Cohorts 7 through 10 (doses of 30, 100, 300 or 450 mg liquid formulation).
(§2) Participants in Part 1 received a single oral dose of the compound of Formula I-11 or placebo on Day 1 and serial PK samples were collected. Baseline assessments were performed on day −1 prior to dosing. Samples were collected for determination of pharmacodynamic parameters at pre-dose daily and up to 24 hours post dose (day 2) after a single oral dose of the compound of Formula I-11. Participants remained at the study site for observation for 24 hours post-dose through the PK sample collection on Day 2. Participants returned to the site for the 48, 72, and 120-hour post-dose sample collection on Days 3, 4, and 6. Safety was evaluated by a Safety Review Committee prior to escalation to the next dose level cohort.
Part 2, Cohorts 1 through 4, included 41 participants (4 cohorts of 10 participants each and 1 additional placebo participant in Cohort 1). Male and female participants who met the eligibility criteria were randomly assigned at a ratio of 4:1 to receive either the compound of Formula I-11 oral liquid formulation or matching placebo, N=8 and 2 per dose cohort respectively. Forty (97.6%) males and 1 (2.4%) female (placebo) participant were enrolled.
(§3) Participants in Part 2, Cohorts 1 through 3, received a daily oral dose of the compound of Formula I-11 (50, 100, or 200 mg liquid formulation respectively) or placebo for 7 days. A daily oral dose of the compound of Formula I-11 or placebo in participants in Part 2, Cohort 4 (350 mg liquid formulation) was planned for 14 days but was discontinued early in all subjects, either by the Investigator because of AEs, or by the Sponsor. A decision was made by the Sponsor to discontinue dosing of the entire cohort based on the frequency of AEs and laboratory abnormalities after Day 9. In Cohort 4, participants on the compound of Formula I-11 received daily oral dosing of 350 mg for up to 7 days; one placebo participant received daily oral dosing for 9 days. Samples were collected for determination of pharmacodynamic parameters at pre-dose daily and to 24 hours post dose (day 8) while on drug. Daily trough PK samples were collected for the determination of steady-state from Day 2 to Day 12 or 13. Participants returned to the site on Day 30 for an end-of-study visit. Safety was evaluated by a Safety Review Committee prior to escalation to the next dose level cohort.
Part 2, MAD Cohort 5 participants received either the compound of Formula I-11, 100 mg (n=8) or placebo (n=2) on Days 1, 2, 3, 4, 5, 6, 7. The last dose was administered on the morning of Day 7. […]

[2] = Pharmacokinetics after single and multiple oral doses
Excerpt: as §1, §2
Participants in Part 2, Cohorts 1 through 3, received a daily oral dose of the compound of Formula I-11 (50, 100, or 200 mg liquid formulation respectively) or placebo for 7 days. A daily oral dose of the compound of Formula I-11 or placebo in participants in Part 2, Cohort 4 (350 mg liquid formulation) was planned for 14 days but was discontinued early in all subjects, either by the Investigator because of AEs, or by the Sponsor. A decision was made by the Sponsor to discontinue dosing of the entire cohort based on the frequency of AEs and laboratory abnormalities after Day 9. […] Safety was evaluated by a Safety Review Committee prior to escalation to the next dose level cohort. […]

[3] = system: healthy male volunteers and healthy postmenopausal female volunteers; test: Pharmacodynamics: serum cholesterol, LDL and HDL cholesterol by standard clinical laboratory tests
Excerpt: as §1, §2, §3
Pharmacodynamic endpoints: Protocol-specified endpoints were assessed at baseline and regularly throughout the study period. These assessments included serum cholesterol, LDL, and HDL cholesterol. Measurements of all pharmacodynamic end points were made using standard clinical laboratory tests.

[4] = repeated oral administration, all MAD cohorts (1-5), Day 7

COc1cc2c(-c3cnn4cc(N5CCC(N6CCN(C)CC6)CC5)cnc34)ccnc2cc1F [Formula I-11]
dose level well tolerated ([1]; after 7 daily oral doses (Part 2, MAD)): up to 200 mg
subjects with increases in ALT >2x ULN ([1]; both, human, in vivo): 3 subjects
AEs reported and higher than placebo ([1]; in vivo): headache, nausea, vomiting, diarrhea, gastroenteritis, chills, pyrexia, myalgia, decreased appetite, lymphopenia, neutropenia, and liver enzyme increases
serious adverse events ([1]; in vivo): no serious adverse events
severity of the majority of AEs ([1]; in vivo): mild or moderate in severity
participants who discontinued the study ([1]; male, human, in vivo): 3 (9.4%) participants
dose level well tolerated ([1]; single oral dose (Part 1, SAD)): up to 450 mg
half-life ([2]; both sexes, in vivo, human, oral): 10 to 15 h
Mean AUC, dose dependence ([2]; multiple doses from 50-200 mg): increased linearly with greater than dose-proportional increases
Mean Cmax, dose dependence ([2]; multiple doses from 50-200 mg): increased linearly with greater than dose-proportional increases
decrease in LDL compared with HDL cholesterol ([3]; all MAD cohorts, Day 7): greater decreases in LDL than HDL cholesterol
total cholesterol ([3]; repeated oral administration, MAD Cohorts 1-4, across the one-week dosing period): decreases in total cholesterol
HDL cholesterol [3, 4]: decreases in HDL cholesterol
LDL cholesterol [3, 4]: decreases in LDL cholesterol
total cholesterol ([3]; single oral administration, SAD cohorts, within 24 hours): decreases in total cholesterol
